Assay results: US4661484A, “Pyridazinone derivatives and salts thereof as cardiac stimulants” (Mitsubishi Chemical Industries Limited, priority 1984, dated 1987)

Key:
[1] = test system: left atrium of the guinea pig; test: Effect on contraction of an isolated left atrium of the guinea pig; settings: Cavia porcellus; dosage 10^-5 g/ml; read-out: Contraction of left atrium of guinea pig, increase
Description: 2. Effect on contraction of an isolated left atrium of the guinea pig
A left atrium was isolated from a male guinea pig with 200-300 g of body weight soon after striking on the back of its head. The mitral orifice was fixed to the bottom of an organ bath filled with 30 ml of Krebs-Henseleit solution maintained at 35° C. A gas mixture comprising 95% of O2 and 5% of CO2 was passed through the Krebs-Henseleit solution in the organ bath. Isometric tension was measured by connecting a left auricle of heart and a transducer by a yarn. A resting tension of 0.5 g was given to the atrium, which was then electrically driven with square pulses with duration of 1 msec and voltage of 1.5 times as much as threshold in the rate of 2 Hz via dipolar platinum electrodes.
After stabilizing the atrium for 30 minutes from its preparation, the compound dissolved in a solvent was added to the organ bath to measure its effect.

papillary muscle of dog = test: Effect on contraction of an isolated and cross-circulated papillary muscle preparation of the dog; settings: Canis lupus familiaris; dosage 30 μg i.a.; read-out: Contraction of papillary muscle of dog, increase
Description: 1. Effect on contraction of an isolated and cross-circulated papillary muscle preparation of the dog
An isolated and cross-circulated papillary muscle preparation of the dog was prepared by Endo and Hashimoto's method (referred to American Journal of Physiology, 218, 1459-1463, 1970). The effect of the compound was measured by closely intraarterially injecting the compound dissolved in a solvent to the papillary muscle for the purpose of recording its effect on contraction of papillary muscle.

[2] = Acute toxicity (LD50), intravenous, male mice; settings: mouse, in vivo, i.v.
Description: Acute toxicity (LD50) for intravenous administration in male mice was determined by the method of […] and Wilcoxon (referred to Journal of Pharmacology and Experimental Therapeutics, 96, 99-113, 1949).

[3] = test system: myocardial contraction in anesthetized dogs; test: Effects on myocardial contraction in anesthetized dogs; assay type: in vivo; settings: anesthetized dog
Description: 3. Effects on myocardial contraction in anesthetized dogs
Male and female mongrel dogs with body weight of 8-15 kg were used. A dog was anesthetized by intraveneous injection of 30 mg/kg of sodium pentobarbital and practiced artificial respiration. The dog was thoractomized between fourth and fifth costa which was cut off. The pericardium was incised to expose heart. Blood flow through the aorta, which was measured with an electromagnetic blood flowmeter whose probe was attached to the ascending aorta, was used as an approximate index of cardiac output (CO). Left ventricular pressure (LVP) was measured with a Miller Catheter-tip pressure transducer and the first derivative of the LVP (dP/dt) was measured with a differentiater. Contraction of right ventricular muscle (Cont) was determined with a strain-gauge attached to the wall. Systemic blood pressure was measured from the left femoral artery. Heart rate was measured with electrocardiogram (lead II) and a cardiotachometer. The compound dissolved in a solvent was administered intravenously from a left femoral vein.

Work on O=c1ccc(-c2ccc(Nc3ccncc3)cc2)n[nH]1 [Example I, 6-[4-(4'-pyridyl)aminophenyl]-3(2H)-pyridazinone] yielded an activation at 10 µg/mL [1] of 163%, an activation at 0.03 mg (papillary muscle of dog) of 12.4% and an LD50 [2] of 103 mg/kg. For the same compound, the “CO increase (cardiac output)” value ([3]; 30 μg/kg i.v.) was 13%, the “Cont increase (contraction of right ventricular muscle)” value ([3]; 30 μg/kg i.v.) was 31% and the dP/dt max increase ([3]; 30 μg/kg i.v.) was 64%. The “CO increase (cardiac output)” value ([3]; 100 μg/kg i.v.) was 11%, the “Cont increase (contraction of right ventricular muscle)” value ([3]; 100 μg/kg i.v.) was 39% and the dP/dt max increase ([3]; 100 μg/kg i.v.) was 108%.
